{"source": "the NIST ThermoML archive (doi:10.1021/je049971a)", "experiment": "cn = amount concentration of the nth substance listed, in mol/dm3", "details": "101 kPa, Liquid; for speed of sound: Pulse-echo method", "note": "± gives the expanded uncertainty stated by the source.", "data": [{"smiles": "NC(N)=O", "note": "[urea] + O", "values": [{"measurement": "speed of sound", "setting": "283.1 K, c1 = 4.275", "value": "1578.8 ± 2.5", "unit": "m/s"}, {"measurement": "mass density", "setting": "283.1 K, c1 = 4.275", "value": "1069 ± 4", "unit": "kg/m3"}, {"measurement": "speed of sound", "setting": "288.15 K, c1 = 2.065", "value": "1527.2 ± 2.4", "unit": "m/s"}, {"measurement": "speed of sound", "setting": "288.15 K, c1 = 3.148", "value": "1557.2 ± 2.5", "unit": "m/s"}, {"measurement": "speed of sound", "setting": "288.15 K, c1 = 4.269", "value": "1587.6 ± 2.5", "unit": "m/s"}, {"measurement": "speed of sound", "setting": "288.15 K, c1 = 5.421", "value": "1617 ± 2.5", "unit": "m/s"}, {"measurement": "speed of sound", "setting": "288.15 K, c1 = 7.839", "value": "1676.8 ± 2.6", "unit": "m/s"}, {"measurement": "speed of sound", "setting": "288.15 K, c1 = 9.106", "value": "1706.5 ± 2.7", "unit": "m/s"}, {"measurement": "mass density", "setting": "288.15 K, c1 = 2.065", "value": "1032 ± 3", "unit": "kg/m3"}, {"measurement": "mass density", "setting": "288.15 K, c1 = 3.148", "value": "1049 ± 4", "unit": "kg/m3"}, {"measurement": "mass density", "setting": "288.15 K, c1 = 4.269", "value": "1067 ± 4", "unit": "kg/m3"}, {"measurement": "mass density", "setting": "288.15 K, c1 = 5.421", "value": "1084 ± 4", "unit": "kg/m3"}, {"measurement": "mass density", "setting": "288.15 K, c1 = 7.839", "value": "1120 ± 5", "unit": "kg/m3"}, {"measurement": "mass density", "setting": "288.15 K, c1 = 9.106", "value": "1138 ± 6", "unit": "kg/m3"}, {"measurement": "speed of sound", "setting": "298.15 K, c1 = 2.059", "value": "1548.9 ± 2.5", "unit": "m/s"}, {"measurement": "speed of sound", "setting": "298.15 K, c1 = 3.139", "value": "1574.8 ± 2.5", "unit": "m/s"}, {"measurement": "speed of sound", "setting": "298.15 K, c1 = 4.253", "value": "1601.1 ± 2.5", "unit": "m/s"}, {"measurement": "speed of sound", "setting": "298.15 K, c1 = 5.405", "value": "1627.1 ± 2.6", "unit": "m/s"}, {"measurement": "speed of sound", "setting": "298.15 K, c1 = 7.802", "value": "1680.3 ± 2.6", "unit": "m/s"}, {"measurement": "speed of sound", "setting": "298.15 K, c1 = 9.069", "value": "1706.3 ± 2.7", "unit": "m/s"}, {"measurement": "mass density", "setting": "298.15 K, c1 = 2.059", "value": "1030 ± 3", "unit": "kg/m3"}, {"measurement": "mass density", "setting": "298.15 K, c1 = 3.139", "value": "1047 ± 4", "unit": "kg/m3"}, {"measurement": "mass density", "setting": "298.15 K, c1 = 4.253", "value": "1063 ± 4", "unit": "kg/m3"}, {"measurement": "mass density", "setting": "298.15 K, c1 = 5.405", "value": "1081 ± 4", "unit": "kg/m3"}, {"measurement": "mass density", "setting": "298.15 K, c1 = 7.802", "value": "1115 ± 5", "unit": "kg/m3"}, {"measurement": "mass density", "setting": "298.15 K, c1 = 9.069", "value": "1134 ± 5", "unit": "kg/m3"}, {"measurement": "speed of sound", "setting": "308.15 K, c1 = 2.051", "value": "1564.8 ± 2.5", "unit": "m/s"}, {"measurement": "speed of sound", "setting": "308.15 K, c1 = 3.124", "value": "1587.1 ± 2.5", "unit": "m/s"}, {"measurement": "speed of sound", "setting": "308.15 K, c1 = 4.232", "value": "1610.9 ± 2.5", "unit": "m/s"}, {"measurement": "speed of sound", "setting": "308.15 K, c1 = 5.378", "value": "1633.2 ± 2.6", "unit": "m/s"}, {"measurement": "speed of sound", "setting": "308.15 K, c1 = 7.765", "value": "1680.9 ± 2.6", "unit": "m/s"}, {"measurement": "speed of sound", "setting": "308.15 K, c1 = 9.021", "value": "1704.1 ± 2.7", "unit": "m/s"}, {"measurement": "mass density", "setting": "308.15 K, c1 = 2.051", "value": "1026 ± 3", "unit": "kg/m3"}, {"measurement": "mass density", "setting": "308.15 K, c1 = 3.124", "value": "1041 ± 4", "unit": "kg/m3"}, {"measurement": "mass density", "setting": "308.15 K, c1 = 4.232", "value": "1058 ± 4", "unit": "kg/m3"}, {"measurement": "mass density", "setting": "308.15 K, c1 = 5.378", "value": "1076 ± 4", "unit": "kg/m3"}, {"measurement": "mass density", "setting": "308.15 K, c1 = 7.765", "value": "1109 ± 5", "unit": "kg/m3"}, {"measurement": "mass density", "setting": "308.15 K, c1 = 9.021", "value": "1128 ± 5", "unit": "kg/m3"}]}]}
